Test results taken from the supplement of paper PMC10307832.

Tests used:
Test in all cases: relative viability (nuclei count vs DMSO), 5 days (fraction); higher = more cells survive
Axitinib + Alpelisib = compound: CNC(=O)c1ccccc1Sc1ccc2c(/C=C/c3ccccn3)n[nH]c2c1 [Axitinib] + Cc1nc(NC(=O)N2CCC[C@H]2C(N)=O)sc1-c1ccnc(C(C)(C)C(F)(F)F)c1 [Alpelisib] (partner 2 µM)
Summary of the method: (§1)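 Values are medians from duplicate plates. Each reflects relative viability, defined as the nuclei count of treated wells over that of vehicle wells. Lung cancer cell lines in 1536-well plates were pin-tool dosed one day after seeding with one drug alone or with a fixed anchor-drug dose plus five library-drug doses (not always all listed) in √10 steps, then fixed, stained and imaged at 4× after 5 days.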

[1] = compound: CC1=CC=C(C=C1)C(=O)CN2C3=C(CCCC3)SC2=N [Pifithrin_alpha] + COc1cc2c(Oc3ccc(NC(=O)C4(C(=O)Nc5ccc(F)cc5)CC4)cc3F)ccnc2cc1OCCCN1CCOCC1 [Foretinib] (partner 0.25 µM)
Summary of the method: as §1

Axitinib + Navitoclax = compound: CNC(=O)c1ccccc1Sc1ccc2c(/C=C/c3ccccn3)n[nH]c2c1 [Axitinib] + CC1(C)CCC(c2ccc(Cl)cc2)=C(CN2CCN(c3ccc(C(=O)NS(=O)(=O)c4ccc(N[C@H](CCN5CCOCC5)CSc5ccccc5)c(S(=O)(=O)C(F)(F)F)c4)cc3)CC2)C1 [Navitoclax] (partner 0.5 µM)
Summary of the method: as §1

Bemcentinib + Trametinib = compound: Nc1nc(Nc2ccc3c(c2)CC[C@@H](N2CCCC2)CC3)nn1-c1cc2c(nn1)-c1ccccc1CCC2 [Bemcentinib] + CC(=O)Nc1cccc(-n2c(=O)n(C3CC3)c(=O)c3c(Nc4ccc(I)cc4F)n(C)c(=O)c(C)c32)c1 [Trametinib] (partner 0.02 µM)
Summary of the method: as §1

| Cell Line | relative viability (Axitinib + Alpelisib; first compound 0.005 µM) | relative viability (Axitinib + Alpelisib; first compound 0.01581 µM) | relative viability (Axitinib + Alpelisib; first compound 0.05 µM) | relative viability (Axitinib + Alpelisib; first compound 0.1581 µM) | relative viability (Axitinib + Alpelisib; first compound 0.5 µM) | relative viability ([1]; first compound 1 µM) | relative viability ([1]; first compound 3.162 µM) | relative viability ([1]; first compound 10 µM) | relative viability ([1]; first compound 31.62 µM) | relative viability ([1]; first compound 100 µM) | relative viability (Axitinib + Navitoclax; first compound 0.005 µM) | relative viability (Axitinib + Navitoclax; first compound 0.01581 µM) | relative viability (Axitinib + Navitoclax; first compound 0.05 µM) | relative viability (Axitinib + Navitoclax; first compound 0.1581 µM) | relative viability (Axitinib + Navitoclax; first compound 0.5 µM) | relative viability (Bemcentinib + Trametinib; first compound 0.04 µM) | relative viability (Bemcentinib + Trametinib; first compound 0.1265 µM) | relative viability (Bemcentinib + Trametinib; first compound 0.4 µM) | relative viability (Bemcentinib + Trametinib; first compound 1.265 µM) | relative viability (Bemcentinib + Trametinib; first compound 4 µM) |
| --- | --- | --- | --- | --- | --- | --- | --- | --- | --- | --- | --- | --- | --- | --- | --- | --- | --- | --- | --- | --- |
| LOU-NH91 | 0.772 | 0.512 | 0.715 | 0.702 | 0.778 | 0.841 | 0.874 | 0.935 | 0.868 | 0.874 | 0.744 | 0.467 | 0.66 | 0.645 | 0.802 | 0.807 | 0.792 | 0.849 | 0.822 | 0.789 |
| LU99A | 0.492 | 0.498 | 0.533 | 0.515 | 0.522 | 0.772 | 0.866 | 0.861 | 0.398 | 0.776 | 0.858 | 0.805 | 0.83 | 0.773 | 0.902 | 0.516 | 0.641 | 0.55 | 0.596 | 0.51 |
| LXF-289 | 1.05 | 0.961 | 1.03 | 0.958 | 1.05 | 1.02 | 1.05 | 0.995 | 0.888 | 1.01 | 0.952 | 0.944 | 0.944 | 0.945 | 0.928 | 0.705 | 0.681 | 0.648 | 0.7 | 0.773 |
| NCI-H23 | 0.83 | 0.862 | 0.554 | 0.861 | 0.796 | 0.9 | 1.19 | 1.08 | – | 0.872 | 0.907 | 0.947 | 0.856 | 0.87 | 0.893 | 0.363 | 0.432 | 0.353 | 0.429 | 0.466 |
| NCI-H322M | 0.834 | 0.688 | 0.729 | 0.944 | 0.893 | 0.91 | 1.03 | 0.964 | 0.929 | 0.839 | 1.18 | 1.14 | 1.07 | 1.08 | 1.07 | 0.477 | 0.534 | 0.496 | 0.504 | 0.51 |
| NCI-H441 | 0.79 | 0.72 | 0.965 | 0.561 | 0.852 | 0.974 | 1.17 | 1.04 | – | 0.925 | 0.521 | 1 | 0.727 | 0.754 | 0.994 | 0.294 | 0.435 | 0.499 | 0.347 | 0.409 |
| NCI-H460 | 0.569 | 0.571 | 0.54 | 0.549 | 0.821 | 1.06 | 0.974 | 0.933 | 0.492 | 0.631 | 1.12 | 0.964 | 1.17 | 0.984 | 1.18 | 0.137 | 0.185 | 0.147 | 0.158 | 0.259 |
| NCI-H520 | 0.923 | 0.951 | 0.91 | 0.784 | 0.899 | 0.793 | 1.17 | 0.852 | 0.528 | 0.81 | 0.987 | 1.26 | 1.1 | 0.794 | 1.11 | 0.723 | 0.859 | 0.706 | 0.713 | 0.733 |
| NCI-H596 | 0.503 | 0.624 | 0.531 | 0.599 | 0.553 | 0.924 | 0.737 | 0.823 | 0.735 | 0.958 | 0.979 | 0.859 | 1.04 | 0.847 | 0.969 | 0.911 | 0.965 | 0.93 | 0.946 | 0.923 |
| NCI-H647 | 1.27 | 1.24 | 1.28 | 1.11 | 1.6 | 1.07 | 1.25 | 1.04 | 0.724 | 1.11 | 1.21 | 1.12 | 1.03 | 1.2 | 1.28 | 0.493 | 0.545 | 0.538 | 0.392 | 0.634 |
| NCI-H727 | 0.612 | 0.524 | 1.43 | 0.538 | 0.783 | 0.903 | 0.759 | 0.837 | – | 0.75 | 0.582 | 0.466 | 0.454 | 0.451 | 0.61 | 0.39 | 0.381 | 0.385 | 0.424 | 0.414 |
| NCI-H838 | 1.12 | 1 | 1.05 | 1 | 1.18 | 1.06 | 0.933 | 0.991 | 0.8 | 0.762 | 1.2 | 1.18 | 1.21 | 1.15 | 1.3 | 0.501 | 0.535 | 0.533 | 0.432 | 0.534 |
| NCI-H1355 | 0.891 | 0.825 | 0.794 | 0.897 | 0.909 | 0.949 | 0.743 | 0.663 | 0.587 | 0.65 | 0.992 | 0.921 | 0.948 | 1.01 | 0.991 | 0.407 | 0.414 | 0.462 | 0.405 | 0.509 |
| NCI-H1395 | 1.22 | 1.02 | 1.21 | 1.07 | 1.18 | 0.899 | 0.98 | 0.975 | 0.748 | 0.712 | 1.14 | 1.21 | 1.02 | 1.01 | 1.57 | – | 1.12 | 1.02 | 1.2 | 1.11 |
| NCI-H1437 | 1.01 | 1.01 | 1.01 | 0.929 | 1.06 | 1.4 | 1.33 | 1.21 | 0.794 | 0.93 | 1.14 | 1.07 | 1.13 | 1.11 | 1.09 | 0.539 | 0.683 | 0.486 | 0.455 | 0.644 |
| NCI-H1651 | 1.03 | 0.944 | 0.971 | 0.937 | 1.12 | 0.933 | 0.775 | 0.787 | 0.583 | 0.7 | 1.07 | 0.984 | 1.06 | 1.1 | 1.15 | 0.85 | 0.831 | 0.788 | 0.951 | 0.852 |
| NCI-H1666 | 1.12 | 0.918 | 0.942 | 1.05 | 1.1 | 0.969 | 0.933 | 0.867 | 0.781 | 0.763 | 0.975 | 0.91 | 1.01 | 0.914 | 1.18 | 0.972 | 0.954 | 0.926 | 1.01 | 0.925 |
| NCI-H1734 | 0.547 | 0.691 | 0.702 | 0.626 | 0.707 | 0.868 | 0.825 | 0.814 | 0.763 | 0.793 | 0.903 | 0.839 | 0.843 | 0.861 | 0.971 | 0.679 | 0.743 | 0.739 | 0.625 | 0.701 |
| NCI-H1755 | 0.987 | 0.84 | 0.922 | 0.878 | 0.915 | 0.819 | 0.833 | 0.849 | 0.674 | 0.862 | 1.04 | 0.92 | 0.99 | 0.964 | 1 | 0.765 | 0.817 | 0.818 | 0.768 | 0.813 |
| NCI-H1793 | 0.667 | 0.701 | 0.722 | 0.73 | 0.676 | – | 0.539 | 0.61 | 0.642 | 0.483 | 0.438 | 0.386 | 0.424 | 0.514 | 0.504 | 0.442 | 0.436 | 0.421 | 0.442 | 0.365 |
| NCI-H1915 | 1.08 | 1.08 | 1.03 | 1.08 | 1.08 | 1.09 | 1.15 | – | – | 1.12 | 0.802 | 0.778 | 0.77 | 0.753 | 0.812 | 0.291 | 0.29 | 0.283 | 0.293 | 0.305 |
| NCI-H1944 | 0.797 | 0.827 | 0.855 | 0.854 | 0.868 | 0.816 | 0.713 | 0.732 | 0.47 | 0.677 | 1.07 | 0.995 | 1.01 | 1.02 | 1.06 | 0.399 | 0.43 | 0.463 | 0.431 | 0.468 |
| NCI-H1975 | 0.777 | 0.73 | 0.766 | 0.667 | 0.74 | 0.869 | 0.8 | 0.572 | 0.55 | 0.568 | 1.24 | 1.07 | 1.14 | 1.19 | 1.17 | 0.282 | 0.399 | 0.365 | 0.36 | 0.344 |
| NCI-H1993 | 0.664 | 0.643 | 0.655 | 0.784 | 0.693 | 0.721 | 0.566 | 0.694 | 0.661 | 0.674 | 1.13 | 0.937 | 1.07 | 1.03 | 1.1 | 0.71 | 0.394 | 0.467 | 0.493 | 0.482 |
| NCI-H2009 | 1.21 | 1.2 | 1.13 | 1.2 | 1.29 | 1.19 | 1.26 | 1.18 | 0.829 | 1.05 | 1.19 | 1.19 | 1.17 | 1.18 | 1.23 | 0.231 | 0.321 | 0.232 | 0.273 | 0.268 |
| NCI-H2023 | 0.696 | 0.615 | 0.551 | 0.54 | 0.682 | 0.969 | – | 0.578 | – | 0.523 | 1.05 | 1.01 | 0.874 | 0.94 | 1.01 | 0.564 | 0.675 | 0.572 | 0.762 | 0.657 |
| NCI-H2085 | 1.05 | 0.85 | 0.979 | 0.866 | 0.947 | – | 1.11 | 1.07 | 0.78 | 0.844 | 1.09 | 1.28 | 1.26 | 1.03 | 1.18 | 0.538 | 0.667 | 0.526 | 0.444 | 0.516 |
